Paper PMC6471532, “Drug Transport across Porcine Intestine Using an Ussing Chamber System: Regional Differences and the Effect of P-Glycoprotein and CYP3A4 Activity on Drug Absorption” (Pharmaceutics, 2019)
Converted amounts (≈) assume the structure as drawn.

Legend:
[1] = Passive absorption across viable porcine intestine (jejunum) ex vivo, Ussing chamber, from KBR and biorelevant media; conditions: female, Swiss noble, pig
[2] = tested on: viable porcine intestine (jejunum); experiment: as above; conditions: for QDEP FaSSIF V2 / QDEP FeSSIF V2 / QDEP KBR: amount deposited in intestine at 2 h as % of donor; for QPERM FaSSIF V2 / QPERM FeSSIF V2 / QPERM KBR: amount permeated at 2 h as % of donor
human intestine = conditions: Ussing chamber; cited from earlier work
[3] = Segmental drug permeation across porcine duodenum, jejunum, ileum and colon, Ussing chamber; format: in vitro ADME, pig; conditions: female, Swiss noble, pig, 100 µM in KBR
[4] = tested on: porcine duodenum, jejunum, ileum and colon; experiment: as above; format: in vitro ADME, pig; conditions: KBR, 2 h
[5] = Solubility in KBR, FaSSIF V2 and FeSSIF V2
[6] = source not given; cited from earlier work
human jejunum = conditions: cited from earlier work; for Peff,human^a In Vivo: Loc-I-Gut, jejunal segment, cylindrical surface area; for Peff,human^b In Vivo: Loc-I-Gut with physiological estimates of the surface area for absorption
CYP3A4 [7] = conditions: jejunum
CYP3A4 [8] = experiment: in vitro; conditions: female, Swiss noble, pig, jejunum, 100 µM in KBR
P-gp [9] = target: T1, P-gp (Sus scrofa, UniProt K7GMM7)
P-gp [10] = target: T1, P-gp; experiment: in vitro; conditions: female, Swiss noble, pig, pH 7.4, with verapamil hydrochloride 100 µM in the donor compartment
[11] = KBR buffer, pH 7.4, aqueous buffer

T1 sequence (K7GMM7 1-1248): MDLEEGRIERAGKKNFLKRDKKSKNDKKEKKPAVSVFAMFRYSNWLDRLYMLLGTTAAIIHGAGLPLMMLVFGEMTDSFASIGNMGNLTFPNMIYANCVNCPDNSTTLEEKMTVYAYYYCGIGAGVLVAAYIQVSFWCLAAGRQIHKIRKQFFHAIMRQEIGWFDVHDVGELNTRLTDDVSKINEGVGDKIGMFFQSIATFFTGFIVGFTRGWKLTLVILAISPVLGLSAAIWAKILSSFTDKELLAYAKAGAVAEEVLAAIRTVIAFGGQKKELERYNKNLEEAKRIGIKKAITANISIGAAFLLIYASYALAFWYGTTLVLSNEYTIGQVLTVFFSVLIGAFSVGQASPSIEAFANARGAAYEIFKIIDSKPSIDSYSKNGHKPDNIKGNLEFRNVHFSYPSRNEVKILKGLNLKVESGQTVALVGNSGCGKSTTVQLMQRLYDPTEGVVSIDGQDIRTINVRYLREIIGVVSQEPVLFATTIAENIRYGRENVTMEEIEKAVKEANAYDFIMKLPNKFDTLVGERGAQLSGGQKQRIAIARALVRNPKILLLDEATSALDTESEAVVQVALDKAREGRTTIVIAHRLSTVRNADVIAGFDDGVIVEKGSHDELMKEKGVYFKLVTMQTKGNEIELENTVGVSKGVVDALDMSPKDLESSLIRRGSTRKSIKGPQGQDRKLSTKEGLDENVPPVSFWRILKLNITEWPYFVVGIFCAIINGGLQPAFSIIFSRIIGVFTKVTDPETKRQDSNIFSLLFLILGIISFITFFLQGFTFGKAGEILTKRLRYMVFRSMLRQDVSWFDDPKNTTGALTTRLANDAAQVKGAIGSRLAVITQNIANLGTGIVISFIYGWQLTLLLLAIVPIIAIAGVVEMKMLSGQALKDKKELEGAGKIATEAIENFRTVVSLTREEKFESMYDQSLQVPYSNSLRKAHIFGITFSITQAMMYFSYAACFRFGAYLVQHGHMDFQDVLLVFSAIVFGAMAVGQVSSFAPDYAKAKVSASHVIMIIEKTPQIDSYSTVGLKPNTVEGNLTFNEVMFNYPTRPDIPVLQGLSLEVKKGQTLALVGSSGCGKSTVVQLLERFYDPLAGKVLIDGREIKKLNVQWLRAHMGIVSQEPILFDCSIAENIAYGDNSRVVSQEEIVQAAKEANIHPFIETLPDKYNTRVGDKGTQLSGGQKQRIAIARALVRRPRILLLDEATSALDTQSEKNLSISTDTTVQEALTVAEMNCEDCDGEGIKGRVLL

Compound: COCCc1ccc(OCC(O)CNC(C)C)cc1 (racemic) [Metoprolol, (+/−)-Metoprolol]
- Papp at 120 min, 100 µM ([1]; pH 5.8): 5.79 ± 1.38 ×10⁻⁶ cm/s
- Papp at 120 min, 100 µM ([1]; pH 6.5): 7.62 ± 1.41 ×10⁻⁶ cm/s
- Papp at 120 min, 100 µM ([1]; pH 7.4): 10.6 ± 2.92 ×10⁻⁶ cm/s
- QDEP FaSSIF V2 [2]: 0.12 ± 0.03%
- QDEP FeSSIF V2 [2]: 0.22 ± 0.01%
- QDEP KBR [2]: 0.28 ± 0.04%
- QPERM FaSSIF V2 [2]: 0.89 ± 0.19%
- QPERM FeSSIF V2 [2]: 0.74 ± 0.08%
- QPERM KBR [2]: 0.18 ± 0.05%
- Papp,human jejunum (human intestine): 15.9 ± 3.69 10^−6 cm/s
- Papp at 120 min, 100 µM ([3]; pH 7.4, colon, read-out: Papp,pig Ex Vivo Colon): 17.6 ± 5.41 ×10⁻⁶ cm/s
- Papp at 120 min, 100 µM ([3]; pH 7.4, duodenum, read-out: Papp,pig Ex Vivo Duodenum): 0.39 ± 0.16 ×10⁻⁶ cm/s
- Papp at 120 min, 100 µM ([3]; pH 7.4, ileum, read-out: Papp,pig Ex Vivo Ileum): 6.87 ± 1.23 ×10⁻⁶ cm/s
- Papp at 120 min, 100 µM ([3]; pH 7.4, jejunum, read-out: Papp,pig Ex Vivo Jejunum): 10.6 ± 2.92 ×10⁻⁶ cm/s
- QDEP Colon ([4]; colon): 0.02 ± 0.00%
- QPERM Colon ([4]; colon): 1.65 ± 0.87 (6) %
- QDEP Duodenum ([4]; duodenum): 2.35 ± 0.25%
- QPERM Duodenum ([4]; duodenum): 0.14 ± 0.08 (5) %
- QDEP Ileum ([4]; ileum): 1.89 ± 0.67%
- QPERM Ileum ([4]; ileum): 0.83 ± 0.09 (5) %
- QPERM Jejunum ([4]; jejunum): 0.18 ± 0.05 (4) %
- solubility ([5]; FaSSIF V2, pH 6.5, fassif): 43800 ± 15800 µg/mL (≈ 164 mM)
- solubility ([5]; FeSSIF V2, pH 5.8, fessif): 381000 ± 33800 µg/mL (≈ 1420 mM)
- solubility [5, 11]: 298000 ± 13900 µg/mL (≈ 1110 mM)

Compound: CN1C(C(=O)Nc2ccccn2)=C(O)c2ccccc2S1(=O)=O [Piroxicam]
- log P [6]: 3.06
- Papp at 120 min, 100 µM ([1]; pH 5.8): 5.14 ± 0.78 ×10⁻⁶ cm/s
- Papp at 120 min, 100 µM ([1]; pH 6.5): 10.8 ± 3.7 ×10⁻⁶ cm/s
- Papp at 120 min, 100 µM ([1]; pH 7.4): 8.93 ± 2.03 ×10⁻⁶ cm/s
- QDEP FaSSIF V2 [2]: 5.63 ± 0.26%
- QDEP FeSSIF V2 [2]: 0.21 ± 0.04%
- QDEP KBR [2]: 4.12 ± 0.15%
- QPERM FaSSIF V2 [2]: 2.32 ± 0.79%
- QPERM FeSSIF V2 [2]: 1.13 ± 0.46%
- QPERM KBR [2]: 2.52 ± 0.70%
- Peff,human^a In Vivo (human jejunum): 665 n.a. [31] 10^−6 cm/s
- solubility ([5]; FaSSIF V2, pH 6.5, fassif): 290 ± 20 µg/mL (≈ 0.875 mM)
- solubility ([5]; FeSSIF V2, pH 5.8, fessif): 60 µg/mL (≈ 0.181 mM)
- solubility [5, 11]: 430 ± 20 µg/mL (≈ 1.3 mM)

Compound: NC(=O)N1c2ccccc2C=Cc2ccccc21 [Carbamazepine]
- Papp at 120 min, 100 µM ([1]; pH 5.8): 4.26 ± 0.96 ×10⁻⁶ cm/s
- Papp at 120 min, 100 µM ([1]; pH 6.5): 5.97 ± 0.52 ×10⁻⁶ cm/s
- Papp at 120 min, 100 µM ([1]; pH 7.4): 7.81 ± 5.69 ×10⁻⁶ cm/s
- QDEP FeSSIF V2 [2]: 3.45 ± 0.52%
- QDEP KBR [2]: 1.44 ± 0.16%
- QPERM FeSSIF V2 [2]: 0.58 ± 0.22%
- QPERM KBR [2]: 2.39 ± 0.42%
- Peff,human^a In Vivo (human jejunum): 430 n.a. [31] 10^−6 cm/s
- solubility ([5]; FaSSIF V2, pH 6.5, fassif): 320 ± 10 µg/mL (≈ 1.35 mM)
- solubility ([5]; FeSSIF V2, pH 5.8, fessif): 730 ± 10 µg/mL (≈ 3.09 mM)
- solubility [5, 11]: 200 ± 20 µg/mL (≈ 0.846 mM)

Compound: NS(=O)(=O)c1cc(C(=O)O)c(NCc2ccco2)cc1Cl [Furosemide]
- QDEP FaSSIF V2 [2]: 2.22 ± 0.17%
- QDEP FeSSIF V2 [2]: 1.52 ± 0.24%
- Peff,human^b In Vivo (human jejunum): 1–1.6 [77] 10^−6 cm/s
- Peff,human^a In Vivo (human jejunum): 5 n.a. [31] 10^−6 cm/s

Compound: OCc1ncc2n1-c1ccc(Cl)cc1C(c1ccccc1F)=NC2 [α-hydroxymidazolam]
- Amount of principal metabolite in the intestinal tissue in the presence of clotrimazole (CYP3A4 [7]; parent drug 100 µM, clotrimazole 100 µM): significantly decreased

Compound: Cc1ncc2n1-c1ccc(Cl)cc1C(c1ccccc1F)=NC2 [Midazolam]
- Effect of the presence of clotrimazole on Papp,pig (CYP3A4 [7]; clotrimazole 100 µM): significantly increased
- QDEP (+CLOTR) (CYP3A4 [7]; with clotrimazole 100 µM): 7.49 ± 2.50%
- QPERM (+CLOTR) (CYP3A4 [7]; with clotrimazole 100 µM): 0.18 ± 0.08%
- QDEP (−CLOTR) (CYP3A4 [7]; without clotrimazole): 8.06 ± 1.33%
- QPERM (−CLOTR) (CYP3A4 [7]; without clotrimazole): 0.13 ± 0.09%
- log P [6]: 3.89
- Papp at 120 min, 100 µM (CYP3A4 [8]; pH 7.4, Papp,pig Ex Vivo (+CLOTR), with clotrimazole 100 µM): 0.46 ± 0.07 ×10⁻⁶ cm/s
- Papp at 120 min, 100 µM (CYP3A4 [8]; pH 7.4, Papp,pig Ex Vivo (−CLOTR), without clotrimazole): 0.183 ± 0.138 ×10⁻⁶ cm/s

Compound: COc1ccc2cc([C@H](C)C(=O)O)ccc2c1 [Naproxen]
- QDEP FeSSIF V2 [2]: 4.74 ± 1.04%
- Peff,human^b In Vivo (human jejunum): 27–42 [77] 10^−6 cm/s
- Peff,human^a In Vivo (human jejunum): 850 n.a. [31] 10^−6 cm/s

Compound: CNC(=C[N+](=O)[O-])NCCSCc1ccc(CN(C)C)o1 [Ranitidine]
- Effect of the presence of verapamil on Papp,pig in the ileum (P-gp [9]; ileum, verapamil 100 µM, Student's t-test): significantly increased
- QDEP Ileum (+VER) (P-gp [9]; ileum, with verapamil 100 µM): 7.91 ± 0.74%
- QPERM Ileum (+VER) (P-gp [9]; ileum, with verapamil 100 µM): 0.25 ± 0.03 (6) %
- QDEP Ileum (−VER) (P-gp [9]; ileum, without verapamil): 1.10 ± 0.59%
- QPERM Ileum (−VER) (P-gp [9]; ileum, without verapamil): 0.55 ± 0.35 (4) %
- Difference in Papp,pig across the jejunum in the presence or absence of verapamil (P-gp [9]; jejunum, verapamil 100 µM): No statistically significant difference
- QDEP Jejunum (+VER) (P-gp [9]; jejunum, with verapamil 100 µM): 5.47 ± 0.75%
- QPERM Jejunum (+VER) (P-gp [9]; jejunum, with verapamil 100 µM): 0.23 ± 0.15 (5) %
- QDEP Jejunum (−VER) (P-gp [9]; jejunum, without verapamil): 1.32 ± 0.31%
- QPERM Jejunum (−VER) (P-gp [9]; jejunum, without verapamil): 0.67 ± 0.12 (6) %
- Papp at 120 min, 100 µM (P-gp [10]): 4.92 ×10⁻⁶ cm/s
- solubility ([5]; FaSSIF V2, pH 6.5, fassif): 15900 ± 1470 µg/mL (≈ 50.5 mM)
- solubility ([5]; FeSSIF V2, pH 5.8, fessif): 808000 ± 70500 µg/mL (≈ 2570 mM)
- solubility [5, 11]: 19600 ± 2780 µg/mL (≈ 62.5 mM)

Compound: NS(=O)(=O)c1cc2c(cc1Cl)NCNS2(=O)=O [Hydrochlorothiazide]
- Papp at 120 min, 100 µM ([1]; pH 5.8): 1.37 ± 0.53 ×10⁻⁶ cm/s
- Papp at 120 min, 100 µM ([1]; pH 6.5): 0.2 ± 0.25 ×10⁻⁶ cm/s
- Papp at 120 min, 100 µM ([1]; pH 7.4): 2.88 ± 2.84 ×10⁻⁶ cm/s
- QDEP FaSSIF V2 [2]: 0.22 ± 0.11%
- QDEP FeSSIF V2 [2]: 0.74 ± 0.09%
- QPERM FaSSIF V2 [2]: 0.11 ± 0.05%
- QPERM FeSSIF V2 [2]: 0.23 ± 0.08%
- Peff,human^a In Vivo (human jejunum): 4 n.a. [31] 10^−6 cm/s
